Test [1] has as its target NLuc^N-PYR1^WIN (Arabidopsis) (UniProt O49686).
Test [2] addresses NLuc^N-PYR1^4F (Arabidopsis) (UniProt O49686).
For test [3], the target named is NLuc^N-PYR1^PIRI (Arabidopsis) (UniProt O49686).
Test [4] concerns the target NLuc^N-PYR1^DIAZI (Arabidopsis) (UniProt O49686).
Another test deals with T1, PYR1^M (H60P, N90S) (Arabidopsis thaliana, UniProt O49686, H60P/N90S).
T1 construct: made in house; host or cells: E. coli (pET derivatives)
T1 sequence (O49686 1-191 H60P/N90S): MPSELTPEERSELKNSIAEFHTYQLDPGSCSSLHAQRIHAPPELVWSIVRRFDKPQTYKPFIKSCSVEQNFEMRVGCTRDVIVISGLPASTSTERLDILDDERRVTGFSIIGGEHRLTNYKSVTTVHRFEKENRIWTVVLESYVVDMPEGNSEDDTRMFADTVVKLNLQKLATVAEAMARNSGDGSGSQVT
T1 sequence (Q9CAJ0 179-511 C186S/R199A/D204A/S209V/H248S/F260E/C274S/D287K/S292N/S342A/M358I/N377A/R422E/N439S/M483K partner): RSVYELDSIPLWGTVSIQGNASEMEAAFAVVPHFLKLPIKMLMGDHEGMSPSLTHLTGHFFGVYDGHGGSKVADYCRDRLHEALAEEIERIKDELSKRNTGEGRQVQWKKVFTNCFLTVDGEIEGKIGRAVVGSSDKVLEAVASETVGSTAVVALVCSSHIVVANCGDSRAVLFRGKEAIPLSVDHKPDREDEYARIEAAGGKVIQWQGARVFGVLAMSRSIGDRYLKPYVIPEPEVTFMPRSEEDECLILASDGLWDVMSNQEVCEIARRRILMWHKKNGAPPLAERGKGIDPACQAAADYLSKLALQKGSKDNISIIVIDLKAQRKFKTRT
As to the kind of experiment: ELISA-like plate assay, immobilized PYR1^M, biotinylated ΔN-HAB1^T+, streptavidin-HRP. The class given is binding. Particulars: for ELISA signal generation, positive control (source data): PYR1^M tested with ABA, replicates, listed as + CNTRL.

For a further test, the target named is T2, PYR1^PIRI (Arabidopsis thaliana, UniProt O49686, A160T/E130G/F159T/K59R/N119S/S122Q/S92M/V174A).
T2 construct: >PYR1-PIRI; expressed in transfected cells; host or cells: Saccharomyces cerevisiae BY4742
T2 sequence (Q9CAJ0 179-511, one chain of several, further chain): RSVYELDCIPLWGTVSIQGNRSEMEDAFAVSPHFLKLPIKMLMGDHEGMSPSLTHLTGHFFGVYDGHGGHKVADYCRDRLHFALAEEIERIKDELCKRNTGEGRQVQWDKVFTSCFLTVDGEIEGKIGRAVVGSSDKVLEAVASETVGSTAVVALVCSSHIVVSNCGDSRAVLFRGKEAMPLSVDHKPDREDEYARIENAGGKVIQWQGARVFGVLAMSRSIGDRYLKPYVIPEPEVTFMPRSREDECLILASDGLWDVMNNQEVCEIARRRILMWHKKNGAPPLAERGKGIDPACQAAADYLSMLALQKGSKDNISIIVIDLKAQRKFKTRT
Briefly: Split NanoLuc luciferase complementation in yeast, NLuc^N-PYR1^PIRI/NLuc^C-HAB1. The format is cell-based.

The target in a further test is T3, PYR1^PIRI / HAB1 (Arabidopsis thaliana, UniProt O49686, A160T/E130G/F159T/K59R/N119S/S122Q/S92M/V174A).
T3 construct: made in house
T3 sequence (O49686 with tags, fused parts or gaps K59R/S92M/N119S/S122Q/E130G/F159T/A160T/V174A): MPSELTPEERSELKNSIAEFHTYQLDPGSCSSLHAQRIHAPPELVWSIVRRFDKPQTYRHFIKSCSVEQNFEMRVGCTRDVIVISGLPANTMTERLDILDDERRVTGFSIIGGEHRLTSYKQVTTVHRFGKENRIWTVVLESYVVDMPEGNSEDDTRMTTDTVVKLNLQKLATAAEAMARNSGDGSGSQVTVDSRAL
As to the kind of experiment: Ligand/receptor-mediated PP2C (HAB1 phosphatase) inhibition, PYR1^PIRI. The format is biochemical.

“And” between values parts separate entries of the source, which are not always exact repeats. Identical values can stand only once.

Chain of NLuc^C-ΔN-HAB1 (Q9CAJ0 179-511, stated change not applied): as the sequence (Q9CAJ0 179-511, one chain of several, further chain) above

Take “NLuc^C-ΔN-HAB1 (from UniProt Q9CAJ0 179-511) (enzyme)”: the in vitro inhibition of ΔN-HAB1 phosphatase activity by recombinant 6×His-PYR1^WIN (50 nM receptor, 25 nM ΔN-HAB1, 4-methylumbelliferyl phosphate); EC50 of the ligand WIN 55,212-2 in test [1] was found to be 72 nM. Also, in test [2], the in vitro inhibition of ΔN-HAB1 phosphatase activity by recombinant 6×His-PYR1^4F (25 nM receptor, 25 nM ΔN-HAB1, 4-methylumbelliferyl phosphate); EC50 of the ligand 4F-MDMB-BUTINACA turned out to be 102 nM. In test [3], this molecule registered a receptor-mediated inhibition of HAB1 phosphatase activity in vitro; EC50 of the ligand pirimiphos-methyl of 58 nM. Besides, the receptor-mediated inhibition of HAB1 phosphatase activity in vitro; EC50 of the ligand diazinon in test [4] turned out to be 36 nM.

With `CC1=CC(=O)CC(C)(C)[C@@]1(O)/C=C/C(C)=C\C(=O)O` [ABA, abscisic acid], the “ELISA signal generation, positive control (source data)” value on PYR1^M (H60P, N90S) (2 nM) was 2.266 and 2.046 and 2.24; on PYR1^M (H60P, N90S) (2 μM), 3.553 and 3.555 and 3.41. Also, the “Amax [AU 450 nm]” value on PYR1^M (H60P, N90S) (global fit, PYR1M/ABA/ΔN-HAB1T+ system, Biorep 1-3) was 2 AU 450 nm and 2.8 AU 450 nm. Also, at PYR1^M (H60P, N90S) (global fit, PYR1M/ABA/ΔN-HAB1T+ system, Biorep 1-3, read-out: KD1), the Kd was 820 nM and 780 nM and 2090 nM.

The EC50 is the concentration at which the effect is half-maximal. Low readings indicate a more potent agent, high ones a less potent agent. In the case of `CCN(CC)c1nc(C)cc(OP(=S)(OC)OC)n1` [Pirimiphos-methyl, pirimiphos-methyl], the EC50 was found to be 19 nM on PYR1^PIRI and 58 nM at PYR1^PIRI / HAB1. Besides, the “ligand concentrations required for activation of PYR1^PIRI above background” value on PYR1^PIRI / HAB1 (HAB1 inhibition and Y2H assays) is recorded as “low-nanomolar concentrations”.

(Values after paper PMC9750858, “Rapid biosensor development using plant hormone receptors as reprogrammable scaffolds” (Nature Biotechnology, 2022).)
